Assay results as given in US20170105986A1, “Topical Formulation to Enhance Genital Sensation and Function” (priority 2014, published 2017).

Test system: genital area of the patient
Assay: Short term effect of the topical formulation applied to the genital area, as reported by users
Assay type: in vivo, human
Details: for functionality as component of the topical formulation: forms of coQ10 added to the formulation; for somewhat improved sexual function continuing after use: middle-aged male, component of the formula
Source text: The following examples are used to show the short term effect of the topical formulation when applied to the genital area of the patient.

Structure (SMILES)	functionality as component of the topical formulation	somewhat improved sexual function continuing after use	period for which the effects of the topical formulation are prolonged following administration (ATP included in second core composition)
COc1c(O)c(C)c(C/C=C(\C)CC/C=C(\C)CC/C=C(\C)CC/C=C(\C)CC/C=C(\C)CC/C=C(\C)CC/C=C(\C)CC/C=C(\C)CC/C=C(\C)CCC=C(C)C)c(O)c1OC [ubiquinol, reference compound]	seems not functional	–	–
COC1=C(OC)C(=O)C(C/C=C(\C)CC/C=C(\C)CC/C=C(\C)CC/C=C(\C)CC/C=C(\C)CC/C=C(\C)CC/C=C(\C)CC/C=C(\C)CC/C=C(\C)CCC=C(C)C)=C(C)C1=O [ubiquinone, reference compound]	seems not functional	–	–
NC(=O)c1ccc[n+]([C@@H]2O[C@H](CO)[C@@H](O)[C@H]2O)c1 [nicotinamide ribose, nicotinamide riboside]	–	about 10 hours	–
Nc1ncnc2c1ncn2[C@@H]1O[C@H](COP(=O)(O)OP(=O)(O)OP(=O)(O)O)[C@@H](O)[C@H]1O [ATP, adenosine triphosphate]	–	about 10 hours	~12 h
